Measurements as given in patent US8461338B2, “(1R, 1′R)-atracurium salts separation process” (Chemagis Ltd., priority 2007, dated 2013).

Legend:
[1] = cited from earlier work
[2] = Stability of cisatracurium salt in different eluent mixtures (HPLC assay of isomer content over time); assay type: physicochemical; settings: for % of the 1R-cis,1′R-cis isomer in the eluent composition: room temperature
Method: Table 6 illustrates how the amount of the 1R-cis,1′R-cis isomer changes at room temperature as a function of time in 3 different eluent mixtures. The (1R,1′R)-atracurium besylate isomer mixture was dissolved in the eluent and the resulting solutions were allowed to stand at room temperature for a period of 26 hours. After certain time intervals, as specified in Table 6, samples were withdrawn from each one of the 3 solutions and assayed by HPLC to determine the amount of the 1R-cis,1′R-cis isomer in the mixture.
The stability of the cisatracurium salt in the eluent mixture at 25° C. is presented in FIG. 1 whereby two plots are compared, that is, the plot describing the stability of the 1R-cis,1′R-cis isomer in the eluent mixture of 80:10:10 dichloromethane:DMSO:formic acid of the present invention (Column A in Table 6) vs. the plot of the dichloromethane:MeOH:benzenesulfonic acid eluent system, described in U.S. Pat. No. 5,556,978, example 2 (Column C in Table 6).

SMILES: COc1ccc(C[C@@H]2c3cc(OC)c(OC)cc3CC[N@+]2(C)CCC(=O)OCCCCCOC(=O)CC[N@@+]2(C)CCc3cc(OC)c(OC)cc3[C@H]2Cc2ccc(OC)c(OC)c2)cc1OC [1R-cis,1′R-cis isomer, (1R,1′R,2R,2′R)-2,2′-[1,5-pentanediylbis[oxy(3-oxo-3,1-propanediyl)]]bis[1-[(3,4-dimethoxyphenyl)methyl]-1,2,3,4-tetrahydro-6,7-dimethoxy-2-methyl-isoquinolinium dibenzenesulfonate]
- rate of loss in potency ([1]; at 25° C. (77° F.)): approximately 5 % per month
- rate of loss of potency ([1]; under refrigeration (5° C.)): approximately 5 % per year
- change of the content of the 1R-cis,1′R-cis isomer in the eluent mixture ([2]; dichloromethane:DMSO:formic acid eluent mixture, after 26 hours): remains unchanged
- decrease of the content of the 1R-cis,1′R-cis isomer in the eluent mixture ([2]; dichloromethane:methanol:benzenesulfonic acid eluent (U.S. 5,556,978, example 2), after 26 hours at room temperature): more than 3%
- % of the 1R-cis,1′R-cis isomer in the eluent composition ([2]; eluent A dichloromethane:DMSO:formic acid 80:10:10, 0 hours): 55.1%
- % of the 1R-cis,1′R-cis isomer in the eluent composition ([2]; eluent A dichloromethane:DMSO:formic acid 80:10:10, 2 hours): 55.4%
- % of the 1R-cis,1′R-cis isomer in the eluent composition ([2]; eluent A dichloromethane:DMSO:formic acid 80:10:10, 11 hours): 55.2%
- % of the 1R-cis,1′R-cis isomer in the eluent composition ([2]; eluent A dichloromethane:DMSO:formic acid 80:10:10, 12 hours): 55.1%
- % of the 1R-cis,1′R-cis isomer in the eluent composition ([2]; eluent A dichloromethane:DMSO:formic acid 80:10:10, 24 hours): 55.3%
- % of the 1R-cis,1′R-cis isomer in the eluent composition ([2]; eluent A dichloromethane:DMSO:formic acid 80:10:10, 26 hours): 55.4%
- % of the 1R-cis,1′R-cis isomer in the eluent composition ([2]; eluent B dichloromethane:DMSO:benzenesulfonic acid 90:10:0.006, 0 hours): 55.3%
- % of the 1R-cis,1′R-cis isomer in the eluent composition ([2]; eluent B dichloromethane:DMSO:benzenesulfonic acid 90:10:0.006, 2 hours): 55.3%
- % of the 1R-cis,1′R-cis isomer in the eluent composition ([2]; eluent B dichloromethane:DMSO:benzenesulfonic acid 90:10:0.006, 11 hours): 55.3%
- % of the 1R-cis,1′R-cis isomer in the eluent composition ([2]; eluent B dichloromethane:DMSO:benzenesulfonic acid 90:10:0.006, 12 hours): 55.3%
- % of the 1R-cis,1′R-cis isomer in the eluent composition ([2]; eluent B dichloromethane:DMSO:benzenesulfonic acid 90:10:0.006, 24 hours): 55.3%
- % of the 1R-cis,1′R-cis isomer in the eluent composition ([2]; eluent B dichloromethane:DMSO:benzenesulfonic acid 90:10:0.006, 26 hours): 55.2%
- % of the 1R-cis,1′R-cis isomer in the eluent composition ([2]; eluent C dichloromethane:methanol:benzenesulfonic acid 4000:500:0.5, 0 hours): 55.3%
- % of the 1R-cis,1′R-cis isomer in the eluent composition ([2]; eluent C dichloromethane:methanol:benzenesulfonic acid 4000:500:0.5, 2 hours): 54.9%
- % of the 1R-cis,1′R-cis isomer in the eluent composition ([2]; eluent C dichloromethane:methanol:benzenesulfonic acid 4000:500:0.5, 11 hours): 53.4%
- % of the 1R-cis,1′R-cis isomer in the eluent composition ([2]; eluent C dichloromethane:methanol:benzenesulfonic acid 4000:500:0.5, 12 hours): 53.7%
- % of the 1R-cis,1′R-cis isomer in the eluent composition ([2]; eluent C dichloromethane:methanol:benzenesulfonic acid 4000:500:0.5, 24 hours): 52.6%
- % of the 1R-cis,1′R-cis isomer in the eluent composition ([2]; eluent C dichloromethane:methanol:benzenesulfonic acid 4000:500:0.5, 26 hours): 52.0%
